Experimental data as given in patent US10689354B2, “Aminoazole derivative” (Teijin Pharma Limited, priority 2015, dated 2020).

How the values were obtained:
[1] = biological target: T1, androgen receptor (AR-LBD) (Rattus norvegicus, UniProt P15207); assay: Evaluation of androgen receptor affinity (PolarScreen Androgen Receptor Competitor Assay Kit, Red; fluorescence polarization); settings: 22° C. for 5 hours, relative to binding rate of 1 μM DHT, read-out: AR affinity (pEC50) (converted)
T1 construct: 5 μL of 2×AR-LBD/Fluoromone AL Red Complex contained in the kit; purchased Invitrogen
T1 sequence (P15207 651-882 limits assumed): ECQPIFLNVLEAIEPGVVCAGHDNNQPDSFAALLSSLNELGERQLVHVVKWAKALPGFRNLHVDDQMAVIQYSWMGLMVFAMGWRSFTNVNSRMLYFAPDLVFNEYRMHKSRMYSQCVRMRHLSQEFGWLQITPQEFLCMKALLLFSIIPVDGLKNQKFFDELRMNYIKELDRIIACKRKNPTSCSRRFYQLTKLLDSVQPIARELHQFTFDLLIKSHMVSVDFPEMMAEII
Summary of the method: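 Fluorescence polarization competition assay: compound was incubated in duplicate with the kit's AR-LBD/Fluoromone AL Red complex for 5 h at 22 °C. Binding was expressed relative to 1 μM DHT, and pEC50 was derived by 4-parameter fit.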

human androgen receptor = biological target: T2, human androgen receptor (Homo sapiens, UniProt P10275); assay: Reporter assay of an androgen receptor responsive sequence (luciferase, transiently transfected HEK293 cells); format: cell-based; settings: 24 hours incubation, relative to activity of 100 nM DHT, read-out: AR transcriptive activity (pEC50) (converted)
T2 construct: expressed in transfected cells; host or cells: HEK293
T2 sequence (P10275 1-920): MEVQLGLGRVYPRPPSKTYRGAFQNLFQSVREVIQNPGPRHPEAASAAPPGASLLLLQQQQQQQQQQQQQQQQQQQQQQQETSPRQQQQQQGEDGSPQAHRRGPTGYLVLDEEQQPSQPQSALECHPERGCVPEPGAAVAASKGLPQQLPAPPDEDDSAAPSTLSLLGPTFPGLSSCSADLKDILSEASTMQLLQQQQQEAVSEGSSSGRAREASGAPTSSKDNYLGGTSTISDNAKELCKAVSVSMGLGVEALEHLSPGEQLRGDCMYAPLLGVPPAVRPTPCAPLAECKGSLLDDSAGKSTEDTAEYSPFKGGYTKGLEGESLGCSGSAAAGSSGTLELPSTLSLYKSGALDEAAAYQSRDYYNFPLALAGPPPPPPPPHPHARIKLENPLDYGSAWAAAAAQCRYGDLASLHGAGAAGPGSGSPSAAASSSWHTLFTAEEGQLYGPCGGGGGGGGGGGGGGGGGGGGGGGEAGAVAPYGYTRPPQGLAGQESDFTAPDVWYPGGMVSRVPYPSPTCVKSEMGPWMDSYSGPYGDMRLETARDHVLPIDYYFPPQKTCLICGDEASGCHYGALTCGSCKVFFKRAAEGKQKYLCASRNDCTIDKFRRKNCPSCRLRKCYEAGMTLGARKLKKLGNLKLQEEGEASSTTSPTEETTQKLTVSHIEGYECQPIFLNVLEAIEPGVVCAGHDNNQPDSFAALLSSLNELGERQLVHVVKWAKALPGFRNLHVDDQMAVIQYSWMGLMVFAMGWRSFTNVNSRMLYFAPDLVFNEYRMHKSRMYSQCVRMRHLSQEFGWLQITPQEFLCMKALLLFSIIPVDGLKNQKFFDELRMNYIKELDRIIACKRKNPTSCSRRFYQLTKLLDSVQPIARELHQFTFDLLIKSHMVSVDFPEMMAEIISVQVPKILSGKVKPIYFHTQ
Summary of the method: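 HEK293 cells transiently transfected for 3 h with ARE-firefly luciferase, full-length human AR and TK-Renilla plasmids, then exposed to compound for 24 h at 37 °C in 5% charcoal-treated FBS/DMEM. Dual-Glo luminescence read; pEC50 from 4-parameter fit relative to 100 nM DHT.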

Row | Structure (SMILES) | EC50 [1] [nM] | EC50 (human androgen receptor) [nM]
1 | CS(=O)(=O)NC(=O)c1nc(N(Cc2ccc3occc3c2)c2ccc(C#N)cc2)sc1Cl [Example 279, 2-[N-(benzofuran-5-ylmethyl)-4-cyano-anilino]-5-chloro-N-methylsulfonyl-thiazole-4-carboxamide] | 31.6 | 50.1
2 | CS(=O)(=O)NC(=O)c1nc(N(Cc2cc3ccccc3s2)c2ccc(C#N)cc2)sc1Cl [Example 280, 2-[N-(benzothiophen-2-ylmethyl)-4-cyano-anilino]-5-chloro-N-methylsulfonyl-thiazole-4-carboxamide] | 50.1 | 25.1
3 | Cc1nc(CN(c2ccc(C#N)cc2)c2nc(C(=O)NS(C)(=O)=O)c(Br)s2)cs1 [Example 281, 5-bromo-2-[4-cyano-N-[(2-methylthiazol-4-yl)methyl]anilino]-N-methylsulfonyl-thiazole-4-carboxamide] | 398 | 631
4 | CS(=O)(=O)NC(=O)c1nc(N(Cc2ccc(F)cc2)c2ccc(C(F)(F)F)nc2)sc1Br [Example 282, 5-bromo-2-[(4-fluorophenyl)methyl-[6-(trifluoromethyl)-3-pyridyl]amino]-N-methylsulfonyl-thiazole-4-carboxamide] | 39.8 | 316
5 | COCCCS(=O)(=O)NC(=O)c1nc(N(Cc2ccc(Cl)cn2)c2ccc(C#N)cc2)sc1C1CC1 [Example 283, 2-[N-[(5-chloro-2-pyridyl)methyl]-4-cyano-anilino]-5-cyclopropyl-N-(3-methoxypropylsulfonyl)thiazole-4-carboxamide] | 200 | > 10000
6 | CS(=O)(=O)NC(=O)c1nc(N(Cc2ccccc2)c2ccc(C#N)cc2)sc1C(F)F [Example 284, 2-(N-benzyl-4-cyano-anilino)-5-(difluoromethyl)-N-methylsulfonyl-thiazole-4-carboxamide] | 126 | > 10000
7 | Cc1oc(N(Cc2ccc(Br)cc2)c2ccc(C#N)cc2)nc1C(=O)NS(C)(=O)=O [Example 285, 2-[N-[(4-bromophenyl)methyl]-4-cyano-anilino]-5-methyl-N-methylsulfonyl-oxazole-4-carboxamide] | 50.1 | 200
8 | Cc1oc(N(Cc2ccc(Cl)cc2)c2ccc(C#N)cc2)nc1C(=O)NS(C)(=O)=O [Example 286, 2-[N-[(4-chlorophenyl)methyl]-4-cyano-anilino]-5-methyl-N-methylsulfonyl-oxazole-4-carboxamide] | 501 | 316
9 | Cc1sc(N(CCc2ccccc2)Cc2ccccc2)nc1C(=O)NS(C)(=O)=O [Example 294, 2-[benzyl(2-phenylethyl)amino]-5-methyl-N-methylsulfonyl-thiazole-4-carboxamide] | 100 | 1000
10 | Cc1sc(N(CCC2CCCCC2)Cc2ccccc2)nc1C(=O)NS(C)(=O)=O [Example 298, 2-[benzyl(2-cyclohexylethyl)amino]-5-methyl-N-methylsulfonyl-thiazole-4-carboxamide] | 100 | > 10000
11 | Cc1sc(N(CCc2ccc(Cl)cc2)Cc2ccccc2)nc1C(=O)NS(C)(=O)=O [Example 299, 2-[benzyl-[2-(4-chlorophenyl)ethyl]amino]-5-methyl-N-methylsulfonyl-thiazole-4-carboxamide] | 31.6 | 126
12 | Cc1sc(N(CCc2ccc(C#N)cc2)Cc2ccccc2)nc1C(=O)NS(C)(=O)=O [Example 301, 2-[benzyl-[2-(4-cyanophenyl)ethyl]amino]-5-methyl-N-methylsulfonyl-thiazole-4-carboxamide] | 50.1 | 158

The remaining lines, values ahead:

Row | EC50 [1] [nM] | EC50 (human androgen receptor) [nM] | Structure (SMILES)
13 | 126 | > 10000 | Cc1sc(N(CCc2ccccc2Cl)Cc2ccccc2)nc1C(=O)NS(C)(=O)=O [Example 303, 2-[benzyl-[2-(2-chlorophenyl)ethyl]amino]-5-methyl-N-methylsulfonyl-thiazole-4-carboxamide]
14 | > 2000 | > 10000 | Cc1sc(N(Cc2ccc(Cl)cc2)Cc2csc3cc(C#N)ccc23)nc1C(=O)NS(C)(=O)=O [Example 305, 2-[(4-chlorophenyl)methyl-[(6-cyanobenzothiophen-3-yl)methyl]amino]-5-methyl-N-methylsulfonyl-thiazole-4-carboxamide]
15 | 31.6 | 100 | Cc1sc(N(CCc2ccc(C#N)cc2)Cc2ccc(Cl)cc2)nc1C(=O)NS(C)(=O)=O [Example 306, 2-[(4-chlorophenyl)methyl-[2-(4-cyanophenyl)ethyl]amino]-5-methyl-N-methylsulfonyl-thiazole-4-carboxamide]
16 | 79.4 | 5010 | COc1cccc(CCN(Cc2ccccc2)c2nc(C(=O)NS(C)(=O)=O)c(C)s2)c1 [Example 308, 2-[benzyl-[2-(3-methoxyphenyl)ethyl]amino]-5-methyl-N-methylsulfonyl-thiazole-4-carboxamide]
17 | 200 | 2510 | Cc1sc(N(CCc2cccs2)Cc2ccccc2)nc1C(=O)NS(C)(=O)=O [Example 310, 2-[benzyl-[2-(2-thienyl)ethyl]amino]-5-methyl-N-methylsulfonyl-thiazole-4-carboxamide]
18 | 158 | 1000 | Cc1sc(N(CCc2ccsc2)Cc2ccccc2)nc1C(=O)NS(C)(=O)=O [Example 313, 2-[benzyl-[2-(3-thienyl)ethyl]amino]-5-methyl-N-methylsulfonyl-thiazole-4-carboxamide]
19 | 79.4 | 158 | Cc1sc(N(CCc2ccc(Cl)cc2Cl)Cc2ccccc2)nc1C(=O)NS(C)(=O)=O [Example 315, 2-[benzyl-[2-(2,4-dichlorophenyl)ethyl]amino]-5-methyl-N-methylsulfonyl-thiazole-4-carboxamide]
